These results are taken from US20240034731A1, “AZA-QUINAZOLINE COMPOUNDS AND METHODS OF USE” (Iambic Therapeutics, Inc., priority 2022, published 2024).

The target in one assay is CDK1/Cyclin B1 (Homo sapiens (Human), UniProt P06493). Description: CDK1/Cyclin B1 ADP-Glo Kinase Assay. Particulars: ADP-Glo, 80 uM ATP; read-out: CDK1 Cyclin B1 IC50. The assay is classed as biochemical. In short, it runs like this:
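Enzyme and inhibitor pre-incubated 30 min at room temperature before ATP/substrate addition; reaction run 90 min at room temperature. ADP formed measured by ADP-Glo luminescence; IC50 from a 4-parameter fit of fractional velocity versus inhibitor concentration.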

In a further assay the target is CDK2/Cyclin E1 (Homo sapiens (Human), UniProt P24941). The assay is described as follows: CDK2/Cyclin E1 Full length ADP-Glo Kinase Assay. The assay is classed as biochemical. Particulars: 20 uM ATP, read-out: CDK2/ CyclinE1 IC50. In a few lines:
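Full-length human CDK2/cyclin E1 was preincubated 30 min at room temperature with inhibitor, then reacted 90 min with ATP-containing substrate solution. ADP formed was measured by ADP-Glo luminescence; IC50 from 4-parameter fit of fractional velocity versus inhibitor concentration.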

In a further assay the test system is MCF-7 cells. Description: Cell Growth Inhibition, MCF-7 (CellTiterGlo, 6 days). The class given is cell-based. Conditions: Homo sapiens, MCF7, 144 h, MCF-7, 6-day treatment. In short, it runs like this: (§1)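 MCF-7 (ER+ breast adenocarcinoma) or CCNE1-amplified OVCAR-3 cells, 500/well in RPMI with 10% FBS, treated with half-log dilutions typically 10-10,000 nM for 6 days at 37 °C. CellTiterGlo 2.0 luminescence gave % growth inhibition versus control; IC50 by four-parameter variable-slope fit.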

For another assay, the target named is CDK4/Cyclin D1 (Homo sapiens (Human), UniProt P11802). Description: CDK4/Cyclin D1 Mobility Shift Assay (MSA). The assay is classed as biochemical. Particulars: 0.2 mM ATP, read-out: CDK4/ CyclinD1 MSA IC50. The text has this: CDK4/Cyclin D1 Mobility Shift Assay (MSA)
CDK4/Cyclin D1, sequence (P11802 whole entry): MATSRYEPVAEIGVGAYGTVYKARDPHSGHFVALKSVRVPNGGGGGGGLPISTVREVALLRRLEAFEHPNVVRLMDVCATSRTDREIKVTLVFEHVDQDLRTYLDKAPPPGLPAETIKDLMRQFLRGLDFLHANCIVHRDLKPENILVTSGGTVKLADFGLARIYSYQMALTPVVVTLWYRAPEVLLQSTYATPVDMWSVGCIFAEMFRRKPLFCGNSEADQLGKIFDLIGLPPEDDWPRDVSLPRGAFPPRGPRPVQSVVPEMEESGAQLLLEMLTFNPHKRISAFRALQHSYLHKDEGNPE
CDK4/Cyclin D1, sequence (P24385 whole entry partner): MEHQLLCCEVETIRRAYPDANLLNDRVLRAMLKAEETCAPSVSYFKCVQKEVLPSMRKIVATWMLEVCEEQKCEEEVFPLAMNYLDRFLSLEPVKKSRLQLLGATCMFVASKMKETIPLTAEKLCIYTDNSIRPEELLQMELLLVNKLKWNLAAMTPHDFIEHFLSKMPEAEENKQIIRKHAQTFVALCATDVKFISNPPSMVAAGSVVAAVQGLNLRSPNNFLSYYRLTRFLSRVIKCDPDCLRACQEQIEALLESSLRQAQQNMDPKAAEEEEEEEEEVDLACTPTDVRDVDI
The purpose CDK4/Cyclin D1 assay is to evaluate the inhibition (% inhibition and IC50 values) in the presence of small molecule inhibitors by using a fluorescence based microfluidic mobility shift assay. CDK4/Cyclin D1 catalyzes the production of ADP from ATP that accompanies the phosphoryl transfer to the substrate peptide 5-FAM-Dyrktide (5-FAM-[…]) (Perkin Elmer Peptide 34). The mobility shift assay (MSA) electrophoretically separates the fluorescently labelled peptides (substrate and phosphorylated product) following the kinase reaction. Both substrate and product are measured, and the ratio of these values is used to generate % conversion of substrate to product by the LabChip EZ Reader. Typical reaction solutions contained 2% DMSO (+/− inhibitor), 10 mM MgCl2, 1 mM EGTA, 0.05% BSA, 2 mM DTT, 0.2 mM ATP, 0.01% Brig-35, 1.5 uM 5-FAM-Dyrktide, 2.5 nM CDK4/Cyclin D1 in 50 mM HEPES buffer at pH 7.5. The reaction was initiated with the addition of substrate solution, following a 30-minute pre-incubation of enzyme and inhibitor at 22° C. in the reaction mix. The reaction was stopped after 180 minutes by the addition of 75 uL of 500 mM EDTA and measured on a Perkin Elmer EZ reader instrument. IC50 determinations were made from a plot of the fractional velocity as a function of inhibitor concentration fit to the 4 parameters IC50 equation.

A further assay concerns the target CDK6/Cyclin D3 (Homo sapiens (Human), UniProt Q00534). Description: CDK6/Cyclin D3 ADP-Glo Kinase Assay. The class given is biochemical. Conditions: 100 uM ATP, read-out: CDK6/ CyclinD3 IC50. In short, it runs like this: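 Enzyme and inhibitor were pre-incubated for 30 min at room temperature before ATP/substrate was added. The kinase reaction ran 90 min at room temperature, and ADP formed was detected by ADP-Glo luminescence. IC50 was fitted with a 4-parameter equation to fractional velocity versus inhibitor concentration.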

The subject of the next assay is OVCAR-3 cells. The assay is described as follows: Cell Growth Inhibition, OVCAR-3 (CellTiterGlo, 6 days). The assay is classed as cell-based. Conditions: Homo sapiens, 144 h, OVCAR-3, 6-day treatment. In short, it runs like this: as §1

CDK6/Cyclin D3, sequence (Q00534 whole entry): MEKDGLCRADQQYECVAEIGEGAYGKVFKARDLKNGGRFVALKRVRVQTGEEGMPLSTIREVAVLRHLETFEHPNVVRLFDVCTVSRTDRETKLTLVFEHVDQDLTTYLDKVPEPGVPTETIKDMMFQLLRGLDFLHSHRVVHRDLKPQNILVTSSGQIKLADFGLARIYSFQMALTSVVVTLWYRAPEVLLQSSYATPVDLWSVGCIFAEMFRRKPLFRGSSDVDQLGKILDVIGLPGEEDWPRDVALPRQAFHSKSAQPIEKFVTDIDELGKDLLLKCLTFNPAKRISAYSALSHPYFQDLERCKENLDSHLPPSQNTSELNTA
CDK6/Cyclin D3, sequence (P30281 whole entry partner): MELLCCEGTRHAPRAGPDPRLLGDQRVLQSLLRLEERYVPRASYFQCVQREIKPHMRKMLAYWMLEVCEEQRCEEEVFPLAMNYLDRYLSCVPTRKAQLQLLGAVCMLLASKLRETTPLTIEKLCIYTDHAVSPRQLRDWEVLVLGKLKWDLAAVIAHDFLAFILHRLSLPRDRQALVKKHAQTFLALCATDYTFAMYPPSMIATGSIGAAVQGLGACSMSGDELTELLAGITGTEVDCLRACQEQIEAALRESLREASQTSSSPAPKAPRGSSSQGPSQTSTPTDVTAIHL
CDK1/Cyclin B1, sequence (P06493 whole entry): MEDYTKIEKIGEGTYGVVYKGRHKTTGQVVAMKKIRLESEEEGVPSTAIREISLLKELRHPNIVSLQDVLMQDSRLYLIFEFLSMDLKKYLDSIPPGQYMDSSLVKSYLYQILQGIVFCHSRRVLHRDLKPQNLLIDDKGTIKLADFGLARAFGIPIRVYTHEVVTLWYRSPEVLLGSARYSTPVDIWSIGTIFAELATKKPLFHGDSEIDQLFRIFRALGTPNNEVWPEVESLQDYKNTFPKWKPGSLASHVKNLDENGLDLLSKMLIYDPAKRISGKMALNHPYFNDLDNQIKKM
CDK1/Cyclin B1, sequence (P14635 whole entry partner): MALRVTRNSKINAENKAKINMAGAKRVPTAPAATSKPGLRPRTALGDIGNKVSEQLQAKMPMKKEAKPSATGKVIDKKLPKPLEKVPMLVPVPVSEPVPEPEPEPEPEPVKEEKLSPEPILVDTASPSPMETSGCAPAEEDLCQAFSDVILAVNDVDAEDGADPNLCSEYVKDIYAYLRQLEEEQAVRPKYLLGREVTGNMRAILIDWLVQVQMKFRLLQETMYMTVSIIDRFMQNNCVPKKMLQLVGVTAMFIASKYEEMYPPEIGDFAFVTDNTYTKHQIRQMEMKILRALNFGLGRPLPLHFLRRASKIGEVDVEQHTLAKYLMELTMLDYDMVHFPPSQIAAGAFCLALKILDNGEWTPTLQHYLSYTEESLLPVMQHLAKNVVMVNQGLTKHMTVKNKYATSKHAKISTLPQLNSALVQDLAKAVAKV

Consider `CN1CCC(n2cc(Nc3ncc4ccnc(N5CCC6(C5)CC6(F)F)c4n3)cn2)CC1` (stereo not drawn) [Compound 20, 8-(1,1-difluoro-5-azaspiro[2.4]heptan-5-yl)-N-(1-(1-methylpiperidin-4-yl)-1H-pyrazol-4-yl)pyrido[3,4-d]pyrimidin-2-amine], for which the IC50 at CDK1/Cyclin B1 was 0.5 to 2 µM; at CDK2/Cyclin E1, less than 0.2 µM; with MCF-7 cells it was 0.5 to 2 µM; on CDK4/Cyclin D1, less than 0.2 µM; at CDK6/Cyclin D3, less than 0.2 µM; with OVCAR-3 cells it was 0.2 to 0.5 µM.
As for `CS(=O)(=O)N1CCC(Nc2ncc3ccnc(N4CCC(C#N)(C5CC5)C4)c3n2)CC1` (stereo not drawn) [Compound 5, 3-cyclopropyl-1-(2-((1-(methylsulfonyl)piperidin-4-yl)amino)pyrido[3,4-d]pyrimidin-8-yl)pyrrolidine-3-carbonitrile], the IC50 at CDK1/Cyclin B1 is less than 0.2 µM; on CDK2/Cyclin E1 it was less than 0.2 µM; in the assay on MCF-7 cells, 0.5 to 2 µM; on CDK4/Cyclin D1 it was less than 0.2 µM; on CDK6/Cyclin D3, less than 0.2 µM; with OVCAR-3 cells it was 0.5 to 2 µM.
In the case of `CS(=O)(=O)N1CCC(Nc2ncc3ccnc(N4CCC5(CCOCC5)C4)c3n2)CC1` [Compound 7, N-(1-(methylsulfonyl)piperidin-4-yl)-8-(8-oxa-2-azaspiro[4.5]decan-2-yl)pyrido[3,4-d]pyrimidin-2-amine], the IC50 was 0.2 to 0.5 µM on CDK1/Cyclin B1; less than 0.2 µM at CDK2/Cyclin E1; 0.5 to 2 µM in the assay on MCF-7 cells; less than 0.2 µM on CDK4/Cyclin D1; less than 0.2 µM at CDK6/Cyclin D3; 0.5 to 2 µM with OVCAR-3 cells.
Take `CN1CCn2nc(Nc3ncc4ccnc(N5CCC6(C5)CC6(F)F)c4n3)cc2C1` (stereo not drawn) [Compound 10, 8-(1,1-difluoro-5-azaspiro[2.4]heptan-5-yl)-N-(5-methyl-4,5,6,7-tetrahydropyrazolo[1,5-a]pyrazin-2-yl)pyrido[3,4-d]pyrimidin-2-amine]: the IC50 on CDK1/Cyclin B1 was greater than 2 µM; at CDK2/Cyclin E1, less than 0.2 µM; in the assay with MCF-7 cells, 0.5 to 2 µM; at CDK4/Cyclin D1 it was less than 0.2 µM; at CDK6/Cyclin D3 it was less than 0.2 µM; in the assay with OVCAR-3 cells it was 0.5 to 2 µM.
Take `CS(=O)(=O)N1CCC(Nc2ncc3ccnc(N4CCC5(C4)CC5(F)F)c3n2)CC1` (stereo not drawn) [Compound 3, 8-(1,1-difluoro-5-azaspiro[2.4]heptan-5-yl)-N-(1-(methylsulfonyl)piperidin-4-yl)pyrido[3,4-d]pyrimidin-2-amine]: the IC50 on CDK1/Cyclin B1 is less than 0.2 µM; on CDK2/Cyclin E1 it was less than 0.2 µM; in the assay with MCF-7 cells it was 0.5 to 2 µM; on CDK4/Cyclin D1, less than 0.2 µM; at CDK6/Cyclin D3, less than 0.2 µM; with OVCAR-3 cells, less than 0.2 µM.
